Among the data in ChEMBL document CHEMBL1149766, “Quantitative structure activity relationship studies on thiourea analogues as influenza virus neuraminidase inhibitors” (Eur J Med Chem, 2008) are IC50 values, retold here.

Where only a bound is given, the exact number is not on record here.

Sequence of Neuraminidase (B4URF0 whole entry): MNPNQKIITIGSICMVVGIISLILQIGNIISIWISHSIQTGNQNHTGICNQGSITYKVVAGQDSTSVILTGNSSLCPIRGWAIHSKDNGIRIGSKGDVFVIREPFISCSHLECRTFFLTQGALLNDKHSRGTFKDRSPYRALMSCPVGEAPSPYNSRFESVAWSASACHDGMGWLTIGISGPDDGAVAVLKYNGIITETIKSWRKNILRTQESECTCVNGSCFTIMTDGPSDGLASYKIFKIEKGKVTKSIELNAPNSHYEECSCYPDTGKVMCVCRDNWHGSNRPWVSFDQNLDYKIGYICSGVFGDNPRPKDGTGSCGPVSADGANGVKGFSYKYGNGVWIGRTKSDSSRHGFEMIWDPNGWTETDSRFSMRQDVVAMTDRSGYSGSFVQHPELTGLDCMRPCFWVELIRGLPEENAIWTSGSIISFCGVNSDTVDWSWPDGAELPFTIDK

The assay concerns the target Neuraminidase (Influenza A virus, UniProt B4URF0). Nature of the assay: Inhibition of Influenza A virus neuraminidase activity.
In the case of `COc1cc(Cl)nc(NC(=S)NC(=O)c2ccc(Cl)nc2)n1`, the IC50 is over 20 µM.

Regarding `CC(C)(C)NC(=O)NC(=S)NC(=O)c1c(F)cccc1F`, the half-maximal inhibitory concentration (IC50) amounted to 1.43 µM.

On to `Cc1cc(O)nc(NC(=S)NC(=O)c2ccc(-c3ccc([N+](=O)[O-])cc3)o2)n1`, for which it took 0.36 µM to reach half-maximal inhibition (IC50). Compared with the last molecule, the IC50 is about 4-fold lower.

`COc1cc(C)nc(NC(=S)NC(=O)c2ccc(Cl)nc2)n1` came in with a concentration for half-maximal inhibition (IC50) of over 20 µM.

In the case of `COc1cc(C)nc(NC(=S)NC(=O)c2ccc(-c3ccccc3Cl)o2)n1`, the IC50 is over 20 µM.

For `COc1cc(OC)nc(NC(=S)NC(=O)c2ccc(-c3ccccc3Cl)o2)n1`, the IC50 amounted to 1.77 µM.

Regarding `CC(C)(C)NC(=O)NC(=S)NC(=O)c1ccccc1`, inhibition was half-maximal at 1.79 µM (IC50).

Molecule `COc1cc(C)nc(NC(=S)NC(=O)c2ccc(-c3ccc([N+](=O)[O-])cc3)o2)n1` returned an IC50 of 1.22 µM.

On to `CCOc1cc(Cl)nc(NC(=S)NC(=O)c2ccc(-c3ccccc3Cl)o2)n1`, for which the IC50 was over 20 µM.

`CCOc1cc(OCC)nc(NC(=S)NC(=O)c2cccnc2Cl)n1` had an IC50 of over 20 µM.

Consider `CC(C)(C)NC(=O)NC(=S)NC(=O)c1ccc(-c2ccc([N+](=O)[O-])cc2)o1`, for which 1.3 µM corresponded to half-maximal inhibition (IC50). This lies in the single-digit micromolar range.

In the case of `COc1cc(OC)nc(NC(=S)NC(=O)c2cccnc2)n1`, the IC50 was over 20 µM.

In the case of `COc1cc(Cl)nc(NC(=S)NC(=O)c2cccnc2Cl)n1`, half-maximal inhibition (IC50) was put at 2.59 µM.

In the case of `Cc1cc(O)nc(NC(=S)NC(=O)c2ccc(Cl)nc2)n1`, the IC50 amounted to 8.58 µM.

Take `CC(C)[C@H](C(=O)NC(=S)NC(=O)NC(C)(C)C)c1ccc(Cl)cc1`: half-maximal inhibition (IC50) was put at 1.35 µM.

The molecule `CCOc1cc(C)nc(NC(=S)NC(=O)c2ccc(-c3ccc([N+](=O)[O-])cc3)o2)n1` displayed a 50% inhibitory concentration (IC50) of 2.3 µM.

In the case of `CCOc1cc(C)nc(NC(=S)NC(=O)c2ccc(-c3ccccc3Cl)o2)n1`, the IC50 came out at 1.65 µM.

`CC(C)(C)NC(=O)NC(=S)NC(=O)COc1ccc(Cl)cc1Cl` showed an IC50 of 1.67 µM.

As to `Cc1cc(C)nc(NC(=S)NC(=O)c2cccnc2Cl)n1`, the concentration for half-maximal inhibition (IC50) was 7.19 µM.

With `CC(C)(C)NC(=O)NC(=S)NC(=O)c1ccc(-c2ccccc2Cl)o1`, it took 1.42 µM to reach half-maximal inhibition (IC50).

In turn, `COc1cc(OC)nc(NC(=S)NC(=O)c2cnc(Cl)c(Cl)c2)n1` gave an IC50 of 18.5 µM.

As to `O=C(NC(=S)Nc1nc(Cl)cc(Cl)n1)c1ccc(-c2ccccc2Cl)o1`, inhibition was half-maximal at 14.5 µM (IC50).

In turn, `CCOc1cc(OCC)nc(NC(=S)NC(=O)c2ccc(-c3ccc([N+](=O)[O-])cc3)o2)n1` had an IC50 of over 20 µM.

The molecule `CCOc1cc(OCC)nc(NC(=S)NC(=O)c2ccc(Cl)nc2)n1` gave an IC50 of over 20 µM.

Turning to `Cc1cc(O)nc(NC(=S)NC(=O)c2ccc(-c3ccccc3Cl)o2)n1`, the midpoint of inhibition, the IC50, lay at 0.32 µM.

Molecule `COC(=O)NC(=S)NC(=O)NC(C)(C)C` yielded an IC50 of 1.83 µM.

The molecule `CCOc1cc(OCC)nc(NC(=S)NC(=O)c2ccc(-c3ccccc3Cl)o2)n1` came in with an IC50 of 0.08 µM.

In turn, `CCOc1cc(Cl)nc(NC(=S)NC(=O)c2cccnc2Cl)n1` displayed an IC50 of over 20 µM.

Turning to `COc1cc(Cl)nc(NC(=S)NC(=O)c2ccc(-c3ccccc3Cl)o2)n1`, the IC50 amounted to 1.29 µM.

Turning to `CC(C)(C)NC(=O)NC(=S)NC(=O)[C@H]1[C@H](C=C(Cl)Cl)C1(C)C`, the IC50 is 0.26 µM.

The molecule `CC(C)C(C(=O)NC(=S)Nc1nc(Cl)cc(Cl)n1)c1ccc(Cl)cc1` (stereo not given) gave a half-inhibitory concentration (IC50) of over 20 µM.

The molecule `COc1cc(OC)nc(NC(=S)NC(=O)C2C(/C=C(\Cl)C(F)(F)F)C2(C)C)n1` (stereo not given) gave an IC50 of 0.97 µM.

`CC(C)(C)NC(=O)NC(=S)NC(=O)[C@@H]1[C@H](/C=C(\Cl)C(F)(F)F)C1(C)C` gave an IC50 of 0.51 µM.

`COc1cc(OC)nc(NC(=S)NC(=O)COc2ccc(Cl)cc2Cl)n1` yielded an IC50 of 1.89 µM.

Molecule `Cc1cc(C)nc(NC(=S)NC(=O)c2ccc(Cl)cc2F)n1` registered a half-inhibitory concentration (IC50) of 1.36 µM.

As for `Cc1cc(C)nc(NC(=S)NC(=O)c2ccccc2)n1`, the IC50 was found to be 2.1 µM. Against the preceding molecule, the IC50 is about 1.5-fold higher.

`COc1cc(Cl)nc(NC(=S)NC(=O)c2ccc(Cl)cc2F)n1`: the half-maximal inhibitory concentration (IC50) was 5.1 µM.

As to `O=C(NC(=S)Nc1nc(Cl)cc(Cl)n1)c1ccc(-c2ccc([N+](=O)[O-])cc2)o1`, the IC50 amounted to 1.66 µM.

`Cc1cc(C)nc(NC(=S)NC(=O)C2C(/C=C(\Cl)C(F)(F)F)C2(C)C)n1` (stereo not given) displayed an IC50 of 0.58 µM.

Turning to `CCOc1cc(OCC)nc(NC(=S)NC(=O)C(c2ccc(Cl)cc2)C(C)C)n1` (stereo not given), the IC50 is 0.31 µM. Compared with the last molecule, the IC50 is about 1.9-fold lower.

Usually IC50 stands for the concentration that gives 50% inhibition. Low values mean greater potency in that assay, high ones weaker potency in that assay.
